In the experiment the test system is T1, estradiol/estrogen methyltransferase (EMT; EmtABCD).
T1 construct: gene emtA; native, not purified; cell-free extract of estradiol-grown cells; assignment to emtABCD by proteogenomics; with Estrogen methyltransferase component EmtC; Estrogen methyltransferase component EmtD (oxidoreductase-like, putative reductive cofactor regeneration)
The experiment is described as follows: UPLC assay of methylation by cell-free extract, Michaelis-Menten. Format: biochemical, Denitratisoma oestradiolicum. The following applies: SAM methyl donor, Ti(III)-citrate, MgCl2, HEPES/KOH pH 8.0, 30°C, anaerobic; crude soluble extract, enzyme not purified.

What is called Km is the substrate concentration at which the rate is half of its maximum.

Regarding `C[C@]12CC[C@@H]3c4ccc(O)cc4CC[C@H]3[C@@H]1CC[C@@H]2O` [17β-estradiol], the Km turned out to be 35 ± 4 µM.

With `C[C@]12CC[C@@H]3c4ccc(O)cc4CC[C@H]3[C@@H]1CCC2=O` [estrone], the Km came to 14 ± 3 µM.

The values are drawn from PMC7448270, “Channeling C1 Metabolism toward S-Adenosylmethionine-Dependent Conversion of Estrogens to Androgens in Estrogen-Degrading Bacteria” (mBio, 2020).
